Patent US4110327A, “2,3 Diketo-piperazinocarbonylamino alkanoic acids and derivatives” (Toyama Chemical Co., Ltd., priority 1974, dated 1978)

Legend:
Format in all cases: cell-based
Shigella flexneri = experiment: MIC against clinical isolates; conditions: unit assumed
Method: (§1) The minimum inhibitory concentrations (MIC) was determined by the plate method disclosed in "Chemotherapy" (Japan), Vol. 16, (1968), pages 98 - 99. The culture medium used was a Heart infusion agar (pH 7.4). The number of the cells per plate used in the inoculum as 10^4 (10^6 cells/ml).
(§2) MIC was determined in the same manner as in the preceding paragraph (1).

Shigella sonnei = experiment: MIC against clinical isolates; conditions: unit assumed
Method: as §1, §2

Salmonella typhi-murium = experiment: MIC against clinical isolates; conditions: unit assumed
Salmonella typhi = experiment: MIC against clinical isolates; conditions: unit assumed
[1] = test system: Pseudomonas aeruginosa I.F.O.; experiment: MIC against standard strain, plate method; conditions: unit assumed
Method: as §1

Klebsiella pneumoniae [2] = experiment: MIC against standard strain, plate method; conditions: unit assumed
Method: as §1

[3] = test system: Staphylococcus aureus 209p; experiment: MIC against standard strain, plate method; conditions: unit assumed
Method: as §1

Escherichia coli NIHJ = experiment: MIC against standard strain, plate method; conditions: unit assumed
Method: as §1

Proteus vulgaris 3027 = experiment: MIC against standard strain, plate method; conditions: Proteus vulgaris 3027, standard strain; unit assumed
Method: as §1

Klebsiella pneumoniae [4] = experiment: MIC against clinical isolates; conditions: unit assumed
Staphylococcus aureus = experiment: MIC against clinical isolates; conditions: unit assumed
Pseudomonas aeruginosa = experiment: MIC against clinical isolates; conditions: unit assumed
Escherichia coli = experiment: MIC against clinical isolates; conditions: unit assumed

SMILES: CC1(C)S[C@@H]2[C@H](NC(=O)C(C(=O)O)c3ccccc3)C(=O)N2[C@H]1C(=O)O (some centres unmarked) [Sodium Carbenicillum, reference compound]
- MIC (Shigella flexneri; clinical isolate JS 11215): > 200 µg/mL
- MIC (Shigella sonnei; clinical isolate JS 11232): > 200 µg/mL
- MIC (Salmonella typhi-murium; clinical isolate SL 858): 12.5 µg/mL
- MIC (Salmonella typhi-murium; clinical isolate SL 2136): > 200 µg/mL
- MIC (Salmonella typhi; clinical isolate SL 819): 6.25 µg/mL
- MIC (Salmonella typhi; clinical isolate SL 2169): 3.13 µg/mL

SMILES: CC(=O)OCC1=C(C(=O)O)N2C(=O)[C@@H](NC(=O)Cc3cccs3)[C@H]2SC1 [Sodium Cephalothin, SodiumCephalothin, reference compound]
- MIC [1]: > 200 µg/mL
- MIC (Klebsiella pneumoniae [2]): 100 µg/mL
- MIC [3]: < 1.57 µg/mL
- MIC (Escherichia coli NIHJ): < 1.57 µg/mL
- MIC (Proteus vulgaris 3027): < 1.57 µg/mL
- MIC (Klebsiella pneumoniae [4]; clinical isolate GN 917): 3.13 µg/mL
- MIC (Klebsiella pneumoniae [4]; clinical isolate GN 4081): 12.5 µg/mL
- MIC (Klebsiella pneumoniae [4]; clinical isolate GN 4117): 6.25 µg/mL
- MIC (Staphylococcus aureus; clinical isolate F-1): < 0.4 µg/mL
- MIC (Staphylococcus aureus; clinical isolate F-2): < 0.4 µg/mL
- MIC (Staphylococcus aureus; clinical isolate F-3): < 0.4 µg/mL
- MIC (Staphylococcus aureus; clinical isolate F-4): < 0.4 µg/mL
- MIC (Staphylococcus aureus; clinical isolate F-5): 1.56 µg/mL
- MIC (Staphylococcus aureus; clinical isolate MS 8588): < 0.4 µg/mL
- MIC (Staphylococcus aureus; clinical isolate MS 8596): < 0.4 µg/mL
- MIC (Staphylococcus aureus; clinical isolate MS 8619): < 0.4 µg/mL
- MIC (Staphylococcus aureus; clinical isolate MS 8684): < 0.4 µg/mL
- MIC (Staphylococcus aureus; clinical isolate MS 8713): < 0.4 µg/mL
- MIC (Pseudomonas aeruginosa; clinical isolate GN 82): > 200 µg/mL
- MIC (Pseudomonas aeruginosa; clinical isolate GN 163): > 200 µg/mL
- MIC (Pseudomonas aeruginosa; clinical isolate GN 221): > 200 µg/mL
- MIC (Pseudomonas aeruginosa; clinical isolate GN 244): > 200 µg/mL
- MIC (Pseudomonas aeruginosa; clinical isolate GN 376): > 200 µg/mL
- MIC (Pseudomonas aeruginosa; clinical isolate GN 383): > 200 µg/mL
- MIC (Pseudomonas aeruginosa; clinical isolate GN 1035): > 200 µg/mL
- MIC (Pseudomonas aeruginosa; clinical isolate GN 1091): > 200 µg/mL
- MIC (Pseudomonas aeruginosa; clinical isolate GN 2565): > 200 µg/mL
- MIC (Pseudomonas aeruginosa; clinical isolate GN 2987): > 200 µg/mL
- MIC (Pseudomonas aeruginosa; clinical isolate S-1): > 200 µg/mL
- MIC (Pseudomonas aeruginosa; clinical isolate S-2): > 200 µg/mL
- MIC (Pseudomonas aeruginosa; clinical isolate S-3): > 200 µg/mL
- MIC (Pseudomonas aeruginosa; clinical isolate S-4): > 200 µg/mL
- MIC (Escherichia coli; clinical isolate GN 3435): 6.25 µg/mL
- MIC (Escherichia coli; clinical isolate GN 3452): 12.5 µg/mL
- MIC (Escherichia coli; clinical isolate GN 3465): 25 µg/mL
- MIC (Escherichia coli; clinical isolate GN 3481): 12.5 µg/mL
- MIC (Escherichia coli; clinical isolate GN 3611): 50 µg/mL
- MIC (Escherichia coli; clinical isolate K-1): 6.25 µg/mL
- MIC (Escherichia coli; clinical isolate K-2): 6.25 µg/mL
- MIC (Escherichia coli; clinical isolate K-3): 100 µg/mL
- MIC (Escherichia coli; clinical isolate K-4): 25 µg/mL

SMILES: Cc1nnc(SCC2=C(C(=O)O)N3C(=O)[C@@H](NC(=O)Cn4cnnn4)[C@H]3SC2)s1 [Sodium Cephazolin, SodiumCephazolin, reference compound]
- MIC [1]: > 200 µg/mL
- MIC (Klebsiella pneumoniae [2]): 200 µg/mL
- MIC [3]: < 1.57 µg/mL
- MIC (Escherichia coli NIHJ): < 1.57 µg/mL
- MIC (Proteus vulgaris 3027): 1.57 µg/mL
- MIC (Klebsiella pneumoniae [4]; clinical isolate GN 917): 1.56 µg/mL
- MIC (Klebsiella pneumoniae [4]; clinical isolate GN 4081): 3.13 µg/mL
- MIC (Klebsiella pneumoniae [4]; clinical isolate GN 4117): 3.13 µg/mL
- MIC (Staphylococcus aureus; clinical isolate F-1): 0.78 µg/mL
- MIC (Staphylococcus aureus; clinical isolate F-2): < 0.4 µg/mL
- MIC (Staphylococcus aureus; clinical isolate F-3): < 0.4 µg/mL
- MIC (Staphylococcus aureus; clinical isolate F-4): < 0.4 µg/mL
- MIC (Staphylococcus aureus; clinical isolate F-5): 0.78 µg/mL
- MIC (Staphylococcus aureus; clinical isolate MS 8588): < 0.4 µg/mL
- MIC (Staphylococcus aureus; clinical isolate MS 8596): < 0.4 µg/mL
- MIC (Staphylococcus aureus; clinical isolate MS 8619): < 0.4 µg/mL
- MIC (Staphylococcus aureus; clinical isolate MS 8684): < 0.4 µg/mL
- MIC (Staphylococcus aureus; clinical isolate MS 8713): < 0.4 µg/mL
- MIC (Pseudomonas aeruginosa; clinical isolate GN 82): > 200 µg/mL
- MIC (Pseudomonas aeruginosa; clinical isolate GN 163): > 200 µg/mL
- MIC (Pseudomonas aeruginosa; clinical isolate GN 221): > 200 µg/mL
- MIC (Pseudomonas aeruginosa; clinical isolate GN 244): > 200 µg/mL
- MIC (Pseudomonas aeruginosa; clinical isolate GN 376): > 200 µg/mL
- MIC (Pseudomonas aeruginosa; clinical isolate GN 383): > 200 µg/mL
- MIC (Pseudomonas aeruginosa; clinical isolate GN 1035): > 200 µg/mL
- MIC (Pseudomonas aeruginosa; clinical isolate GN 1091): > 200 µg/mL
- MIC (Pseudomonas aeruginosa; clinical isolate GN 2565): > 200 µg/mL
- MIC (Pseudomonas aeruginosa; clinical isolate GN 2987): > 200 µg/mL
- MIC (Pseudomonas aeruginosa; clinical isolate S-1): > 200 µg/mL
- MIC (Pseudomonas aeruginosa; clinical isolate S-2): > 200 µg/mL
- MIC (Pseudomonas aeruginosa; clinical isolate S-3): > 200 µg/mL
- MIC (Pseudomonas aeruginosa; clinical isolate S-4): > 200 µg/mL
- MIC (Escherichia coli; clinical isolate GN 3435): 1.56 µg/mL
- MIC (Escherichia coli; clinical isolate GN 3452): 1.56 µg/mL
- MIC (Escherichia coli; clinical isolate GN 3481): 1.56 µg/mL
- MIC (Escherichia coli; clinical isolate GN 3611): 25 µg/mL
- MIC (Escherichia coli; clinical isolate K-1): 1.56 µg/mL
- MIC (Escherichia coli; clinical isolate K-2): 1.56 µg/mL
- MIC (Escherichia coli; clinical isolate K-3): > 200 µg/mL
- MIC (Escherichia coli; clinical isolate K-4): 3.13 µg/mL

SMILES: CC1(C)S[C@@H]2[C@H](NC(=O)C(c3ccccc3)S(=O)(=O)O)C(=O)N2[C@H]1C(=O)O (some centres unmarked) [Sodium Sulbenicillum, reference compound]
- MIC (Shigella flexneri; clinical isolate JS 11215): > 200 µg/mL
- MIC (Shigella flexneri; clinical isolate JS 11839): 12.5 µg/mL
- MIC (Shigella sonnei; clinical isolate JS 11232): > 200 µg/mL
- MIC (Shigella sonnei; clinical isolate JS 11755): > 200 µg/mL
- MIC (Salmonella typhi-murium; clinical isolate SL 858): 25 µg/mL
- MIC (Salmonella typhi-murium; clinical isolate SL 2136): > 200 µg/mL
- MIC (Salmonella typhi; clinical isolate SL 819): 6.25 µg/mL
- MIC (Salmonella typhi; clinical isolate SL 2169): 1.57 µg/mL
